The species entered for assay [1] is Oryctolagus cuniculus. The assay can be described thus: Inhibition of MAPKAPK1b from rabbit skeletal muscle at 1 uM. The format is tissue-based. The conditions noted are these: Muscle tissue, values are per cent of control.
Assay [2] deals with Mitogen-activated protein kinase 1 (Homo sapiens) (UniProt P28482). Nature of the assay: Inhibition of His-tagged human MAPK2/ERK2 expressed in Escherichia coli at 1 uM; values are per cent of control.
Assay [3] concerns the target Ribosomal protein S6 kinase alpha-5 (Homo sapiens, UniProt O75582). The assay can be described thus: Inhibition of His-tagged human MSK1 expressed in Sf9 cells at 1 uM; values are per cent of control.
For assay [4], the target named is T1, MAP kinase-activated protein kinase 5 (Homo sapiens) (UniProt Q8IW41).
T1 sequence (whole entry): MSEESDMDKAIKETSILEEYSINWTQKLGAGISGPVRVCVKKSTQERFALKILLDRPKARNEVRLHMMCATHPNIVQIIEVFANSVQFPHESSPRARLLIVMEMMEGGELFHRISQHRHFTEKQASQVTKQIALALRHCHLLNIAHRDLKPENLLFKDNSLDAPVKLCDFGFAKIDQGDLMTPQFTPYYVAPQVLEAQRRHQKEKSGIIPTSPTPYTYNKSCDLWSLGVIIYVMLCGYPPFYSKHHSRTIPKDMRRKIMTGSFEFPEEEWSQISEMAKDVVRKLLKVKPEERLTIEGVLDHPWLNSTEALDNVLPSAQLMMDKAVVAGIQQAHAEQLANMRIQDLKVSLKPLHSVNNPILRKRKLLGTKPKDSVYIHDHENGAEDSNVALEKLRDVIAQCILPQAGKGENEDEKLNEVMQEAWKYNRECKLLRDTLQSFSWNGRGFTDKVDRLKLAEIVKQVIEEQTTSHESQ
The assay can be described thus: Inhibition of His-tagged human PRAK expressed in Sf9 cells at 1 uM; values are per cent of control.

Assay [5] concerns the target Casein kinase II (Homo sapiens) (UniProt P67870+P68400+P19784). The assay can be described thus: Inhibition of His-tagged human CK2 expressed in Sf9 cells at 1 uM. The conditions noted are these: values are per cent of control.
Assay [6] concerns the target RAC-alpha serine/threonine-protein kinase (Homo sapiens) (UniProt P31749). The assay can be described thus: Inhibition of human PKBalpha expressed in SF9 cells at 20 uM; values are per cent of control.
Assay [7] deals with T2, Mitogen-activated protein kinase 13 (Homo sapiens) (UniProt O15264).
T2 sequence (whole entry): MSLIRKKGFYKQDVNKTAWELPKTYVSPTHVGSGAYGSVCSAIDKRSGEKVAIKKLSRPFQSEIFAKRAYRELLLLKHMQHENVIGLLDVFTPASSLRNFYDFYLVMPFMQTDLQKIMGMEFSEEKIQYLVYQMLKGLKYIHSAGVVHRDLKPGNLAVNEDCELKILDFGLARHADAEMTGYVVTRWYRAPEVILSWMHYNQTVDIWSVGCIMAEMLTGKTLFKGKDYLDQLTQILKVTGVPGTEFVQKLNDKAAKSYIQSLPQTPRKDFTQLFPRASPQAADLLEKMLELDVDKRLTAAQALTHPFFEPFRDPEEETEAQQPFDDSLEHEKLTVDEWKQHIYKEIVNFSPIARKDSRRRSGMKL
The assay can be described thus: Inhibition of His-tagged human SAPK4/p38delta expressed in Escherichia coli at 20 uM. The conditions noted are these: values are per cent of control.

For assay [8], the target named is MAP kinase-activated protein kinase 2 (Homo sapiens, UniProt P49137). Nature of the assay: Inhibition of His-tagged human MAPKAPK2 expressed in Escherichia coli at 20 uM; values are per cent of control.
MAP kinase-activated protein kinase 2, sequence (P49137 whole entry, looked up): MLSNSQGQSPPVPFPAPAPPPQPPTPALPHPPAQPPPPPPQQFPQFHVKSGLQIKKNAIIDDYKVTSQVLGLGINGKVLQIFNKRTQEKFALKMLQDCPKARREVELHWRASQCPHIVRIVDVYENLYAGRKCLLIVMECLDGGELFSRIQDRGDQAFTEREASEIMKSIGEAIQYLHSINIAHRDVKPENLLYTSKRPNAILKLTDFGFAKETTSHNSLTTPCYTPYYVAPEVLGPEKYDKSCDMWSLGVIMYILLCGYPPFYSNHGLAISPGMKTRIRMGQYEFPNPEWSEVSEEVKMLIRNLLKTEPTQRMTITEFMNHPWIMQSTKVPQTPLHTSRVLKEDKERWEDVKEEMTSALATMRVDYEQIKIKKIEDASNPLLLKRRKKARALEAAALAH
Assay [9] is filed under the species Oryctolagus cuniculus. Nature of the assay: Inhibition of MAPKAPK1b from rabbit skeletal muscle at 20 uM; values are per cent of control. The note with it: Muscle tissue.
The target of assay [10] is T3, Mitogen-activated protein kinase 12 (Homo sapiens) (UniProt P53778).
T3 sequence (whole entry): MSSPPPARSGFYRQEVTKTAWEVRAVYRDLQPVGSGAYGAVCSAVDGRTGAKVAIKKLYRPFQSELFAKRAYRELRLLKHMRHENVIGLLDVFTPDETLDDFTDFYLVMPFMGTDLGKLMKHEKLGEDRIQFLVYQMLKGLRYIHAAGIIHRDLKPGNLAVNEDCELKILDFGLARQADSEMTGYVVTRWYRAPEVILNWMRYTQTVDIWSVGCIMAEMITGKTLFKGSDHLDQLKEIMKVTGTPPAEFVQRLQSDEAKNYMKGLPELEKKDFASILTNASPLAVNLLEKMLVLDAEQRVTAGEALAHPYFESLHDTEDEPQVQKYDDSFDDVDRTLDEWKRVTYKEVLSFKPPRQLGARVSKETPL
Nature of the assay: Inhibition of His-tagged human SAPK3/p38gamma expressed in Escherichia coli at 20 uM; values are per cent of control.

For assay [11], the target named is T4, Serine/threonine-protein kinase Sgk1 (Homo sapiens) (UniProt O00141).
T4 sequence (whole entry): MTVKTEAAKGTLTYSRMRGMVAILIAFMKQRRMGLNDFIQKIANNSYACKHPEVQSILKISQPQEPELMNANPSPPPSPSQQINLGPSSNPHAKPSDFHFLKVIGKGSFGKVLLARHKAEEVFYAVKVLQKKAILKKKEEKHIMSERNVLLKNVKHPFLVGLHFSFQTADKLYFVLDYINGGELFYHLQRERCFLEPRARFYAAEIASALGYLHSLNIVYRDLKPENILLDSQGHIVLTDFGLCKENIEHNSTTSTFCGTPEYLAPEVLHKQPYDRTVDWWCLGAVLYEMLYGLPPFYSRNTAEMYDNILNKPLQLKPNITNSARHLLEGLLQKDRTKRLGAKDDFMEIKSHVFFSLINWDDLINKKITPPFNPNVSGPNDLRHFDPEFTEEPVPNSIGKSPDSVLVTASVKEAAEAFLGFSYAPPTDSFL
The assay can be described thus: Inhibition of His-tagged human SGK expressed in Sf9 cells at 20 uM; values are per cent of control.

For assay [12], the target named is Glycogen synthase kinase-3 beta (Homo sapiens, UniProt P49841). The assay can be described thus: Inhibition of His-tagged human GSK3b expressed in Sf21 cells at 20 uM; values are per cent of control.
Glycogen synthase kinase-3 beta, sequence (P49841 whole entry, looked up): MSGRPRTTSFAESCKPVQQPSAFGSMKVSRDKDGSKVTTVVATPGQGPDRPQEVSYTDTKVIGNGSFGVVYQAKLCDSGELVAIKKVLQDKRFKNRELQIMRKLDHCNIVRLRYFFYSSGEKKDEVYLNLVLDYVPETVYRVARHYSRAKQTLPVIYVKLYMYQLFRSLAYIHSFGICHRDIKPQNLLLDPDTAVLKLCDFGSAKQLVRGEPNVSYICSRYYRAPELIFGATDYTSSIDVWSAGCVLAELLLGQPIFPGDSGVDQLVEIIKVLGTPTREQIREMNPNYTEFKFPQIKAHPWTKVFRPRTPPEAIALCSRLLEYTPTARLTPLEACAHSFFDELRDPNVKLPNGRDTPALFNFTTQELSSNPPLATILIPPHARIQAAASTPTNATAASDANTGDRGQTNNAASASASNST
Assay [13] has as its target Protein kinase C alpha type (Homo sapiens, UniProt P17252). The assay can be described thus: Inhibition of His-tagged human PKCalpha expressed in Escherichia coli at 20 uM; values are per cent of control.

The structures appear in SMILES notation.

Mitogen-activated protein kinase 1 (Homo sapiens), sequence (P28482 whole entry): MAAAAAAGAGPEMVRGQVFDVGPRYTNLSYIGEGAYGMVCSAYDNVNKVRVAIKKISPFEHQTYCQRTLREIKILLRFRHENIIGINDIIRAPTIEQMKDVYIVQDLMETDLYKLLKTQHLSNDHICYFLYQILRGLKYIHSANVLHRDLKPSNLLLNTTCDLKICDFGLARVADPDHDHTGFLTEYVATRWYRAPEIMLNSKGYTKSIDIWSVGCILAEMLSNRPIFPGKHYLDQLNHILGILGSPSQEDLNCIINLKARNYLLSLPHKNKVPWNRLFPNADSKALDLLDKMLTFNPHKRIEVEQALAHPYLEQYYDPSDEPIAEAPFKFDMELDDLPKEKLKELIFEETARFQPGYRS
Ribosomal protein S6 kinase alpha-5, sequence (O75582 whole entry, looked up): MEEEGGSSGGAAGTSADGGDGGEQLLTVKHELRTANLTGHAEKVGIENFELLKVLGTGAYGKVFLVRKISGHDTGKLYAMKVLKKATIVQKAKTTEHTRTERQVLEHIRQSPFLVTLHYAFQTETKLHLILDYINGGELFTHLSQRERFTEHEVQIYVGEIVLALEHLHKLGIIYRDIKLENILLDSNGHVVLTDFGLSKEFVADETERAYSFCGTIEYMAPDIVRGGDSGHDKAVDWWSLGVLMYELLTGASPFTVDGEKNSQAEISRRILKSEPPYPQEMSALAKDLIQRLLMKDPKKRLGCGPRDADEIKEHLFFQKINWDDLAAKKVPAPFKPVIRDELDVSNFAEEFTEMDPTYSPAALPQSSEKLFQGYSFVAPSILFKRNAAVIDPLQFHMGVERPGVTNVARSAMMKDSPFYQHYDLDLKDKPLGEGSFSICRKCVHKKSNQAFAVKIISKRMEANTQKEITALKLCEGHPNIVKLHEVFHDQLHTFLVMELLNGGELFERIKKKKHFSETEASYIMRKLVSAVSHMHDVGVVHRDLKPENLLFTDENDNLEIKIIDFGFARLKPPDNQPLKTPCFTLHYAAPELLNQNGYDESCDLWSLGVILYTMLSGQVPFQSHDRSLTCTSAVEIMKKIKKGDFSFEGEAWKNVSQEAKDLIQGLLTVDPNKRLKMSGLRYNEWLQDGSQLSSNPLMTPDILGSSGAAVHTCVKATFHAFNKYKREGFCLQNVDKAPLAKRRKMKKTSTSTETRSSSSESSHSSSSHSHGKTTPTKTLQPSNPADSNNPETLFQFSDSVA
RAC-alpha serine/threonine-protein kinase (Homo sapiens), sequence (P31749 whole entry): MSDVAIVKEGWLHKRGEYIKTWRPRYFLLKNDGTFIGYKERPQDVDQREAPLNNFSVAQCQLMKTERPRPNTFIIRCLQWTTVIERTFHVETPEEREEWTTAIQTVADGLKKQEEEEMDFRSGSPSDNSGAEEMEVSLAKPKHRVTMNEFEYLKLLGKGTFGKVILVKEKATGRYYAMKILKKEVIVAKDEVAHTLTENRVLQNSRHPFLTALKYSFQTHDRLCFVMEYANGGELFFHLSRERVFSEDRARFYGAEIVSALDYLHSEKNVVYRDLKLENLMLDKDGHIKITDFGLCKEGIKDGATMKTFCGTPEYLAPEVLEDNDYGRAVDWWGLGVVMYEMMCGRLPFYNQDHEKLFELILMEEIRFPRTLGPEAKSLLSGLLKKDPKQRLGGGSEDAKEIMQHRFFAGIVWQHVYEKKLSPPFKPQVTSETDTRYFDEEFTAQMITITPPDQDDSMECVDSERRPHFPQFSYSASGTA

With `O=C1NC(=O)C(c2c[nH]c3ccccc23)=C1c1c[nH]c2ccccc12`, the residual activity in the assay listed under Oryctolagus cuniculus [1] stood at 54%; in assay [2], 86%; in assay [3] it was 56%; in assay [4], 96%; in assay [5], 99%.
With `Cn1cc(C2=C(c3cn(CCCN)c4ccccc34)C(=O)NC2=O)c2ccccc21`, the residual activity worked out at 4% in the assay filed under Oryctolagus cuniculus [1]; 105% in assay [2]; 13% in assay [3]; 102% in assay [4]; 103% in assay [5].
Regarding `CO[C@H]1C[C@@H]2CC[C@@H](C)[C@@](O)(O2)C(=O)C(=O)N2CCCC[C@H]2C(=O)O[C@H]([C@H](C)C[C@@H]2CC[C@@H](O)[C@H](OC)C2)CC(=O)[C@H](C)/C=C(\C)[C@@H](O)[C@@H](OC)C(=O)[C@H](C)C[C@H](C)/C=C/C=C/C=C/1C`, the residual activity in the assay listed under Oryctolagus cuniculus [1] was determined as 95%; in assay [2] it was 90%; in [3] it was 104%; in [4], 74%; in assay [5], 104%.
With `Cn1cc(C2=C(c3c4n(c5ccccc35)CCC(CN)C4)C(=O)NC2=O)c2ccccc21` (stereo unspecified), the residual activity was found to be 5% in the assay filed under Oryctolagus cuniculus [1]; 106% in assay [2]; 5% in [3]; 101% in [4]; 104% in assay [5].
With `CN1C(=O)C(c2c[nH]c3ccccc23)=C(c2c[nH]c3ccccc23)C1=O`, the residual activity is 92% in the assay listed under Oryctolagus cuniculus [1]; 101% in [2]; 103% in assay [3]; 85% in assay [4]; 98% in assay [5].
The matching figures for `NCCCn1cc(C2=C(c3c[nH]c4ccccc34)C(=O)NC2=O)c2ccccc21`: 2%, 107%, 9%, 89% and 106%.
For `O=c1c(O)c(-c2ccc(O)c(O)c2)oc2cc(O)cc(O)c12`, the residual activity in assay [6] amounted to 99%; in assay [7], 103%; in assay [8], 90%; in assay [10], 132%; in assay [11], 35%; in assay [12] it was 30%. The residual activity in assay [13] is 70%. In addition, the level, % of control in the assay filed under Oryctolagus cuniculus [9] was 20%.
Turning to `CC(=O)c1c(O)c(C)c(O)c(Cc2c(O)c3c(c(C(=O)/C=C/c4ccccc4)c2O)OC(C)(C)C=C3)c1O` [ROTTLERIN], the residual activity came to 27% in assay [6]; 130% in assay [7]; 5% in [8]; 146% in assay [10]; 81% in assay [11]; 13% in assay [12]. In addition, the residual activity in [13] worked out at 95%. The molecule also returned a level, % of control in the assay listed under Oryctolagus cuniculus [9] of 79%.
Turning to `Cn1cc(C2=C(c3cn(CCCSC(=N)N)c4ccccc34)C(=O)NC2=O)c2ccccc21` [BISINDOLYLMALEIMIDE IX], the residual activity in the assay listed under Oryctolagus cuniculus [1] was found to be 2%; in assay [2] it was 97%; in assay [3], 2%; in [4], 96%; in assay [5], 104%.
On to `COC[C@H]1OC(=O)c2coc3c2[C@@]1(C)C1=C(C3=O)[C@@H]2CCC(=O)[C@@]2(C)C[C@H]1OC(C)=O` [WORTMANNIN], for which the residual activity turned out to be 92% in the assay listed under Oryctolagus cuniculus [1]; 90% in assay [2]; 99% in [3]; 85% in assay [4]; 98% in [5].

(Values after ChEMBL document CHEMBL1240295, “Specificity and mechanism of action of some commonly used protein kinase inhibitors” (Biochem J, 2000).)
